Read-outs that look alike come from different tables or passages of the source.
Tests used:
activated ERK2 = activated ERK2 (Homo sapiens, UniProt P28482); assay: ERK inhibition assay (spectrophotometric coupled-enzyme assay); type: biochemical; conditions: 10 nM activated ERK2, 65 μM ATP, 30° C.; read-out: Ki values for ERK-2
Description: Compounds were assayed for the inhibition of ERK2 by a spectrophotometric coupled-enzyme assay (Fox et al (1998) Protein Sci 7, 2249).

CDK-2/Cyclin A = CDK-2/Cyclin A (Homo sapiens, UniProt P24941); assay: CDK-2 inhibition assay (coupled enzyme assay); type: biochemical; conditions: 25 nM CDK-2/Cyclin A, 30° C.
Description: Compounds were screened in the following manner for their ability to inhibit CDK-2 using a standard coupled enzyme assay (Fox et al (1998) Protein Sci 7, 2249).
To an assay stock buffer solution containing 0.1M HEPES 7.5, 10 mM MgCl2, 1 mM DTT, 25 mM NaCl, 2.5 mM phosphoenolpyruvate, […], 30 mg/ml pyruvate kinase, 10 mg/ml lactate dehydrogenase, 100 mM ATP, and 100 μM peptide ([…], American Peptide, Sunnyvale, Calif.) was added a DMSO solution of a compound of the present invention to a final concentration of 30 μM. The resulting mixture was incubated at 30° C. for 10 min.
The reaction was initiated by the addition of 10 μL of CDK-2/Cyclin A stock solution to give a final concentration of 25 nM in the assay. The rates of reaction were obtained by monitoring absorbance at 340 nm over a 5-minute read time at 30° C. using a BioRad Ultramark plate reader (Hercules, Calif.). The Ki values were determined from the rate data as a function of inhibitor concentration.

Aurora-2 = biological target: T1, Aurora-2 (Homo sapiens, UniProt O14965); assay: Ki determination for the inhibition of Aurora-2 (coupled enzyme assay); type: biochemical; conditions: 70 nM Aurora-2, 30° C.
T1 sequence (O14965 1-403): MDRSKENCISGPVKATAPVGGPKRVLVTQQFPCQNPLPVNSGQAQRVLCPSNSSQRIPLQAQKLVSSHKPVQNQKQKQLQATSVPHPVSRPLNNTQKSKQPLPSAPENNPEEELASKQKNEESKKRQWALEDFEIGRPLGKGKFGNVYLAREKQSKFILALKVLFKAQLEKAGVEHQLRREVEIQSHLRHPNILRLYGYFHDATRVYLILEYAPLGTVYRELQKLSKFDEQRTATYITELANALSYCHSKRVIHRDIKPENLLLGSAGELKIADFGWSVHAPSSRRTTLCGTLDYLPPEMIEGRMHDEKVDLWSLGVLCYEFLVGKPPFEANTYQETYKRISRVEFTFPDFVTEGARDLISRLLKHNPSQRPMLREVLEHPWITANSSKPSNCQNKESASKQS
How it was run: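 Ki came from reaction rates plotted against inhibitor concentration, with rates taken as A340 decrease over 5 min at 30° C. Enzyme (70 nM final) was added after 10 min compound preincubation; stock buffer held […], 800 μM LRRASLG, PK/LDH coupling, pH 7.5.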

human Src kinase = biological target: T2, human Src kinase (Homo sapiens, UniProt P12931); assay: SRC inhibition assay (radioactivity-based or spectrophotometric assay); type: biochemical; conditions: recombinant human Src kinase, assay A or B
T2 construct: full length recombinant human Src kinase (from Upstate Biotechnology, cat. no. 14-117); purchased Upstate Biotechnology 14-117; host or cells: baculo viral cells
How it was run: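 Full-length recombinant human Src from baculovirus was used. In the radiometric format, enzyme was preincubated 10 min at 30 °C, the reaction was started with ^33P-ATP and run 20 min, then TCA-quenched and filter-counted. The alternative format monitored poly Glu-Tyr phosphorylation by NADH-coupled A340 rate. Ki came from competitive-inhibition fits.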

GSK-3β (AA 1-420) = biological target: T3, GSK-3β (AA 1-420) (Homo sapiens, UniProt P49841); assay: Ki determination for the inhibition of GSK-3 (coupled enzyme system); type: biochemical; conditions: 20 μM ATP, 20 nM GSK-3β, 30° C.
T3 construct: GSK-3β (AA 1-420)
How it was run: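 GSK-3β (AA 1-420, 20 nM) was run in a pyruvate kinase/LDH-coupled NADH assay in 100 mM HEPES pH 7.5, 10 mM MgCl2, 25 mM NaCl, 1 mM DTT, 1.5% DMSO, with 300 μM phosphopeptide substrate. Compound (0.002–30 μM) was preincubated 10 min at 30° C, then 20 μM ATP was added.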

AKT-3 = AKT-3 (Homo sapiens, UniProt Q9Y243); assay: AKT inhibition assay (coupled enzyme assay); type: biochemical; conditions: 45 nM AKT, 170 μM ATP, 30° C.
Description: Compounds were screened for their ability to inhibit AKT using a standard coupled enzyme assay (Fox et al., Protein Sci., (1998) 7, 2249). Assays were carried out in a mixture of 100 mM HEPES 7.5, 10 mM MgCl2, 25 mM NaCl, 1 mM DTT and 1.5% DMSO. Final substrate concentrations in the assay were 170 μM ATP (Sigma Chemicals) and 200 μM peptide (RPRAATF, American Peptide, Sunnyvale, Calif.). Assays were carried out at 30° C. and 45 nM AKT. Final concentrations of the components of the coupled enzyme system were 2.5 mM phosphoenolpyruvate, 300 μM NADH, 30 μg/ML pyruvate kinase and 10 μg/ml lactate dehydrogenase.
An assay stock buffer solution was prepared containing all of the reagents listed above, with the exception of AKT, DTT, and the test compound of interest. 56 μl of the stock solution was placed in a 384 well plate followed by addition of 1 μl of 2 mM DMSO stock containing the test compound (final compound concentration 30 μM). The plate was preincubated for about 10 minutes at 30° C. and the reaction initiated by addition of 10 μl of enzyme (final concentration 45 nM) and 1 mM DTT. Rates of reaction were obtained using a BioRad Ultramark plate reader (Hercules, Calif.) over a 5 minute read time at 30° C.

T3 sequence (P49841 whole entry, the tested form may be a part): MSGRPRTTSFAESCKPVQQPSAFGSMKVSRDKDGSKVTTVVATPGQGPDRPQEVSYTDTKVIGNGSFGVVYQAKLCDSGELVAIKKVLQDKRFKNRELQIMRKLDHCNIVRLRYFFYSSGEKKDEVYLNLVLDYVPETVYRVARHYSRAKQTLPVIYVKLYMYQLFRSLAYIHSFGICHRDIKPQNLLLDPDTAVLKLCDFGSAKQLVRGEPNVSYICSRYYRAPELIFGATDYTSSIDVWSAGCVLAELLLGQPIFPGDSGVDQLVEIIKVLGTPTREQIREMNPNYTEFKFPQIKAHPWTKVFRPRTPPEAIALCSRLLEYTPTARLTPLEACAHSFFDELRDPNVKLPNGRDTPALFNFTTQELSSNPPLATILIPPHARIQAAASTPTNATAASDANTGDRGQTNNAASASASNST
AKT-3, sequence (Q9Y243 whole entry, species assumed): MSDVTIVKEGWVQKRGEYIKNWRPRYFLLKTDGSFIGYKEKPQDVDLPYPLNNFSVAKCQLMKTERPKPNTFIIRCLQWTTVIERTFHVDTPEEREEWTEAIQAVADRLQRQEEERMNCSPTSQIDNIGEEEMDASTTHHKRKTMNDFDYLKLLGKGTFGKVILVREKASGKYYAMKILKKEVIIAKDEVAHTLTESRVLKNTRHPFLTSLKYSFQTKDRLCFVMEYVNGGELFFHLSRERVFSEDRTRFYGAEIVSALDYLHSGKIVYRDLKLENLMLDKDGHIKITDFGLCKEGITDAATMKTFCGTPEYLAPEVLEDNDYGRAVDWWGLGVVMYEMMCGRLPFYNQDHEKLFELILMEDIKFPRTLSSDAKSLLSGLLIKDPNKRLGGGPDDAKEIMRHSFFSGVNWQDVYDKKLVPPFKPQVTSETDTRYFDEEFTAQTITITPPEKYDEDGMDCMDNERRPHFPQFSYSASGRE
activated ERK2, sequence (P28482 whole entry): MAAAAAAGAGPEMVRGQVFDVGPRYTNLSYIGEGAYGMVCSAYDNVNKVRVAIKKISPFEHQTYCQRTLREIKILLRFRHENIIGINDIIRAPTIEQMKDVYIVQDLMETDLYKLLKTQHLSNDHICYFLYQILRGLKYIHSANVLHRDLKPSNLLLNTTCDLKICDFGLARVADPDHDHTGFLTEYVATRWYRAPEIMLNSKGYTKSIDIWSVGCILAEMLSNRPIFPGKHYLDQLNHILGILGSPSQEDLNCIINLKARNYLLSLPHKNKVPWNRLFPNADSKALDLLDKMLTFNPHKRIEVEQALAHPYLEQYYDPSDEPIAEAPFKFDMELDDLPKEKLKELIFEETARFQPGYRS
T2 sequence (P12931 whole entry): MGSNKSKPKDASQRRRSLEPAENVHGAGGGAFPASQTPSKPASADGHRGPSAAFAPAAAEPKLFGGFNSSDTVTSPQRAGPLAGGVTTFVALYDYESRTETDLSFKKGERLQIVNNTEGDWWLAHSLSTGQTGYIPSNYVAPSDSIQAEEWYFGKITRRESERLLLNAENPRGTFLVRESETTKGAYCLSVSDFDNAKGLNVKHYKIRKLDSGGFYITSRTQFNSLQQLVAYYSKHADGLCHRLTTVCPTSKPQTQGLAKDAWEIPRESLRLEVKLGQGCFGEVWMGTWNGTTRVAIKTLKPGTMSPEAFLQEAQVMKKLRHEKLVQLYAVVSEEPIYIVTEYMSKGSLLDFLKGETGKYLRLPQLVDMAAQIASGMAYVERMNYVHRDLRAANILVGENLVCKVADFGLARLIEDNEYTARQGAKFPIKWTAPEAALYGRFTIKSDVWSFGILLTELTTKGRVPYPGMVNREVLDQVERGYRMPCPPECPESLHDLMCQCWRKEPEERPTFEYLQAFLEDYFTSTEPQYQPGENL

| SMILES | Ki (activated ERK2) [nM] | Ki (CDK-2/Cyclin A) [nM] | Ki (Aurora-2) [nM] | Ki (human Src kinase; read-out: Ki value on SRC) [nM] | Ki (GSK-3β (AA 1-420)) [nM] | melting point [°C] | Ki (AKT-3) [nM] | Ki (human Src kinase; read-out: Ki value for SRC) [nM] |
| --- | --- | --- | --- | --- | --- | --- | --- | --- |
| CC(=O)Nc1ccc(Sc2nc(Nc3cc(C4CC4)[nH]n3)c3ccccc3n2)cc1 [IIa-36, [2-(4-Acetamido-phenylsulfanyl)-quinazolin-4-yl]-(5-cyclopropyl-2H-pyrazol-3-yl)-amine] | 1000 to 20000 | < 1000 |  |  |  |  |  |  |
| Cc1cc(Nc2nc(Nc3ccc(CC#N)cc3)nc3ccccc23)n[nH]1 [IIc-15, [2-(4-Cyanomethylphenylamino)-quinazolin-4-yl]-(5-methyl-2H-pyrazol-3-yl)-amine] | < 1000 | < 1000 | < 100 | < 100 | < 100 | > 250 |  |  |
| COc1cccc2c(Nc3cc(C)n[nH]3)nc(Sc3ccc(NC(C)=O)cc3)nc12 [IIa-44, [2-(4-Acetamidophenylsulfanyl)-8-methoxy-quinazolin-4-yl]-(5-methyl-2H-pyrazol-3-yl)-amine] |  | 1000 to 20000 | < 100 |  |  | 247 to 249 |  | 1000 to 6000 |
| Cc1cc(Nc2nc(Nc3ccc4ncsc4c3)nc3ccccc23)n[nH]1 [IIc-53, [2-(Benzothiazol-6-ylamino)-quinazolin-4-yl]-(5-methyl-2H-pyrazol-3-yl)-amine] | < 1000 | < 1000 | < 100 |  | < 100 | 236 to 239 | 1000 to 20000 |  |
| CC(=O)Nc1ccc(Sc2nc(Nc3cc(C)[nH]n3)c3ccccc3n2)cc1 [IIa-38, [2-(4-Acetamidophenylsulfanyl)-quinazolin-4-yl]-(5-methyl-2H-pyrazol-3-yl)-amine] |  | 1000 to 20000 | < 100 |  | 100 to 1000 |  |  |  |
| CCc1ccc(Nc2nc(Nc3cc(C4CC4)[nH]n3)c3ccccc3n2)cc1 [IIc-25, (5-Cyclopropyl-2H-pyrazol-3-yl)-[2-(4-ethylphenylamino)-quinazolin-4-yl]-amine] | 1000 to 20000 | < 1000 | < 100 |  | < 100 | 250 to 251 | 1000 to 20000 |  |
| CCCS(=O)(=O)Nc1ccc(Sc2nc(Nc3cc(C)n[nH]3)c3ccccc3n2)cc1 [IIa-54, (5-Methyl-2H-pyrazol-3-yl)-{2-[4-(propane-1-sulfonylamino)-phenylsulfanyl]-quinazolin-4-yl}-amine] |  | 1000 to 20000 | < 100 |  | 100 to 1000 | 272 to 273 |  | 1000 to 6000 |
| c1ccc2c(Nc3cc(C4CC4)[nH]n3)nc(Nc3ccc4cc[nH]c4c3)nc2c1 [IIc-22, (5-Cyclopropyl-2H-pyrazol-3-yl)-[2-(1H-indol-6-ylamino)-quinazolin-4-yl]-amine] |  |  | < 100 | < 100 | < 100 |  | 1000 to 20000 |  |
| N#CCc1ccc(Nc2nc(Nc3cc(C4CC4)[nH]n3)cc(-c3ccccc3)n2)cc1 [IIIc-4, [2-(4-cyanomethylphenylamino)-6-phenyl-pyrimidin-4-yl]-(5-cyclopropyl-2H-pyrazol-3-yl)-amine] | < 1000 | < 1000 |  |  |  | 294 to 297 |  |  |
| N#CCc1ccc(Nc2nc(Nc3cc(C4CC4)[nH]n3)c3ccccc3n2)cc1 [IIc-31, [2-(4-Cyanomethylphenylamino)-quinazolin-4-yl]-(5-cyclopropyl-2H-pyrazol-3-yl)-amine] |  |  | < 100 | < 100 | < 100 |  | 1000 to 20000 |  |
| c1ccc(Nc2nc(Nc3cc(C4CC4)[nH]n3)c3ccccc3n2)cc1 [IIc-18, (5-Cyclopropyl-2H-pyrazol-3-yl)-(2-phenylamino-quinazolin-4-yl)-amine] | 1000 to 20000 |  | < 100 | < 100 | < 100 | 234 | 1000 to 20000 |  |
| OCCc1ccc(Nc2nc(Nc3cc(C4CC4)[nH]n3)c3ccccc3n2)cc1 [IIc-27, (5-Cyclopropyl-2H-pyrazol-3-yl)-{2-[4-(2-hydroxyethyl)phenylamino]-quinazolin-4-yl}-amine] | < 1000 | < 1000 | < 100 |  | < 100 | 255 to 256 | 1000 to 20000 |  |

Second part, led by results:

| Ki (activated ERK2) [nM] | Ki (CDK-2/Cyclin A) [nM] | Ki (Aurora-2) [nM] | Ki (human Src kinase; read-out: Ki value on SRC) [nM] | Ki (GSK-3β (AA 1-420)) [nM] | melting point [°C] | Ki (AKT-3) [nM] | SMILES | Ki (human Src kinase; read-out: Ki value for SRC) [nM] |
| --- | --- | --- | --- | --- | --- | --- | --- | --- |
|  |  | < 100 | < 100 | < 100 | 228 to 231 | 1000 to 20000 | COC(=O)c1cccc(Nc2nc(Nc3cc(C4CC4)[nH]n3)c3ccccc3n2)c1 [IIc-39, (5-Cyclopropyl-2H-pyrazol-3-yl)-[2-(3-methoxycarbonylphenylamino)-quinazolin-4-yl]-amine] |  |
|  | < 1000 | < 100 |  | 100 to 1000 | 249 to 250 |  | Cc1cccc(Sc2nc(Nc3cc(C)[nH]n3)c3ccccc3n2)c1 [IIa-14, [2-(3-Methylphenylsulfanyl)-quinazolin-4-yl]-(5-methyl-2H-pyrazol-3-yl)-amine] |  |
|  |  | < 100 | < 100 | < 100 |  | 1000 to 20000 | c1ccc2c(Nc3cc(C4CC4)[nH]n3)nc(Nc3ccc4[nH]ncc4c3)nc2c1 [IIc-37, (5-Cyclopropyl-2H-pyrazol-3-yl)-[2-(1H-indazol-5-ylamino)-quinazolin-4-yl]-amine] |  |
|  |  | < 100 | < 100 | < 100 | 241 to 242 | 1000 to 20000 | Cc1cccc(Nc2nc(Nc3cc(C4CC4)[nH]n3)c3ccccc3n2)c1C [IIc-42, (5-Cyclopropyl-2H-pyrazol-3-yl)-[2-(2,3-dimethylphenylamino)-quinazolin-4-yl]-amine] |  |
|  | 1000 to 20000 | < 100 |  | 1000 to 7000 | 258 to 259 |  | CC(=O)Nc1ccc(Sc2nc(Nc3cc(C)[nH]n3)c3cccc(O)c3n2)cc1 [IIa-52, [2-(4-Acetamido-phenylsulfanyl)-8-hydroxyquinazolin-4-yl]-(5-methyl-2H-pyrazol-3-yl)-amine] |  |
